# From patent US6699498B1, “Transdermal therapeutic systems having improved stability and their production” (LTS Lohmann Therapie-Systeme AG, priority 1999, dated 2004)
# Key:
# [1] = Peroxide number (PON) of raw materials; assay type: physicochemical; settings: raw material following approximately 6 months' storage at room temperature
# Excerpt: The peroxide content is commonly expressed by means of the so-called peroxide number PON, which indicates the amount of milliequivalents of active oxygen per kg of substance. There are various methods of determining the peroxide number. The most customary is to react a defined amount of substance in a chloroform/glacial acetic acid solution with an excess of iodide ions and then to back-titrate the resultant iodine using sodium thiosulfate. A less common method, which is restricted to aqueous solutions, is to react the substance with titanium(IV) ions and to measure the resultant peroxo complex by photometry. A semiquantitative test for peroxides which is particularly easy to implement is carried out using commercial […].
# The table below lists the measured peroxide numbers of some exemplary substances used to produce reservoir and matrix systems, following approximately 6 months' storage at room temperature. The peroxide numbers were measured by the two first-mentioned methods.
# [2] = Test reaction of active substance with t-butyl hydroperoxide under reflux; assay type: physicochemical; settings: chloroform; for Identified degradation product in reaction with t-butyl hydroperoxide: reflux 6 hours
# Excerpt: To determine the sensitivity of the active substance to oxidation reactions with hydroperoxides, an easily implemented test reaction has been developed. For this purpose, the active substance in chloroform or another appropriate solvent is reacted with t-butyl hydroperoxide under reflux. If oxidative degradation products of the active substance are found in this reaction mixture, they can be attributed to the reaction with hydroperoxide. Often, degradation of the active substance is also evident very simply from a discoloration of the test solution. The practical conclusion to be drawn from a positive outcome of the test reaction is that when formulating a transdermal system using this active substance the auxiliaries used should include only those which are substantially free from hydroperoxides.
# 80 ml of chloroform and 1 g of t-butyl hydroperoxide are added to 0.5 g of the active substance and this system is heated under reflux with stirring for 6 hours. The reaction mixture is subsequently assessed for its color and analyzed using an appropriate chromatographic method for degradation products formed.
SMILES,PON (peroxide number) [1],Identified degradation product in reaction with t-butyl hydroperoxide [2],other results
CCOCCOCCO [Diethylene glycol monoethyl ether],120 milliequivalents of active oxygen per kg of substance,,
C=C(C)[C@H]1CC=C(C)CC1 [Limonene],15 milliequivalents of active oxygen per kg of substance,,
CCCN(CCc1cccs1)[C@H]1CCc2c(O)cccc2C1 [N-0923 base],,"1,2-dihydronaphth-8-ol",
CCCCCCCC/C=C\CCCCCCCCO [Oleyl alcohol],50 milliequivalents of active oxygen per kg of substance,,
Cc1cc2c(OCC(CNC(C)(C)C)OC(=O)c3ccccc3)cccc2[nH]1 (stereo not drawn) [bopindolol],,,Color of reaction mixture with t-butyl hydroperoxide ([2]; reflux): yellowish discoloration which then becomes strongly brown
CCCN1C[C@H](CSC)C[C@@H]2c3cccc4[nH]cc(c34)C[C@H]21 [pergolide],,Oxidation of the sulfide sulfur to the sulfoxide,
